Five compounds from the RepoRT retention time repository can be followed below.

The nature of the series: Agilent ZORBAX 300 SB-C18, 150 × 1 mm, 3.5 µm; A: water + 0.01% heptafluorobutyric acid; B: acetonitrile + 0.01% heptafluorobutyric acid; gradient (min/%B) 0/0 100/90. The note with it: stereoisomer not certain.
With `CCNCC`, the LC retention time came to 5.17 min.
The value for `Cc1nn(CC(=O)NCCO)c(=O)c2ccccc12` was 7.72 min; that for `O=C(NN=Cc1cc2ccccc2[nH]1)c1ccccc1` was 10.9 min; that for `CCOc1ccc(CCNC(=O)N(c2ccccc2)c2ccccc2)cc1OCC` was 16 min.
The figure for `CC1(N)CCC(C(C)(C)N)CC1` (stereo not given) is 7.19 min.
